In patent EP0216290A2, “Use of thienyl amines as agents with an output-accelerating effect; thienyl amine” (BAYER AG, priority 1985, dated 1987):

system: Weibliche Laborratten; assay: Rat feeding test (Ratten-Fütterungsversuch, Beispiel A); format: in vivo, Laborratten vom Typ SPF Wistar; conditions: 25 ppm in feed ad lib, 13-day test, 12 female rats per group; relative to control without active substance = 100
From the text: Weibliche Laborratten 90-110 g schwer vom Typ SPF Wistar (Züchtung Hagemann) werden ad lib mit Standard Rattenfutter, das mit der gewünschten Menge Wirkstoff versetzt ist, gefüttert. Jeder Versuchsansatz wird mit Futter der identischen Charge durchgeführt, so daß Unterschiede in der Zusammensetzung des Futters die Vergleichbarkeit der Ergebnisse nicht beeinträchtigen können.
Die Ratten erhalten Wasser ad lib.
Jeweils 12 Ratten bilden eine Versuchsgruppe und werden mit Futter, das mit der gewünschten Menge Wirkstoff versetzt ist, gefüttert. Eine Kontrollgruppe erhält Futter ohne Wirkstoff. Das durchschnittliche Körpergewicht sowie die Streuung in den Körpergewichten der Ratten ist in jeder Versuchsgruppe gleich, so daß eine Vergleichbarkeit der Versuchsgruppen untereinander gewährleistet ist.
Während des 13-tägigen Versuchs werden Gewichtszunahme und Futterverbrauch bestimmt.
Es werden die aus der Tabelle ersichtlichen Ergebnisse erhalten: […]

Point of comparison: CCOC(=O)c1cc(CC)sc1NC(=O)Oc1ccccc1 [Bsp. 56], Gewichtszunahme 116. Against it:
- CCOC(=O)c1c(NC(=O)OC)sc(C)c1CC [Bsp. 1, 2-Aminomethoxycarbonyl-3-carbethoxy-4-ethyl-5-methylthiophen] — higher, 119
- CCCCCc1cc(C(=O)OCC)c(NC(=O)OC2CCCCC2)s1 [Bsp. 19] — lower, 115
- COC(=O)Nc1sc2c(c1C(=O)OC)CCCC2 [Bsp. 31] — lower, 109
- CCCCCc1cc(C(=O)OCC)c(NC(=O)Oc2ccccc2C)s1 [Bsp. 20] — lower, 109
